Assay results from patent publication US8633134B2, “Substituted amidine compounds for combating animal pests” (priority 2008, dated 2014).

What was measured:
Type in all cases: in vivo
[1] = test system: Cotton Aphid (Aphis gossypii); assay: Cotton aphid foliar spray test; conditions: 120 h, after 5 days, in comparison with untreated controls
Description: (§1) The active compounds were formulated in cyclohexanone as a 10,000 ppm solution supplied in tubes. The tubes were inserted into an automated electrostatic sprayer equipped with an atomizing nozzle and they served as stock solutions for which lower dilutions were made in 50% acetone:50% water (v/v). A nonionic surfactant (Kinetic®) was included in the solution at a volume of 0.01% (v/v).
Cotton plants at the cotyledon stage were infested with aphids prior to treatment by placing a heavily infested leaf from the main aphid colony on top of each cotyledon. Aphids were allowed to transfer overnight to accomplish an infestation of 80-100 aphids per plant and the host leaf was removed. The infested plants were then sprayed by an automated electrostatic plant sprayer equipped with an atomizing spray nozzle. The plants were dried in the sprayer fume hood, removed from the sprayer, and then maintained in a growth room under fluorescent lighting in a 24-hr photoperiod at 25° C. and 20-40% relative humidity. Aphid mortality on the treated plants, relative to mortality on untreated control plants, was determined after 5 days.

[2] = test system: Diamond Back Moth (Plutella xylostella); assay: Diamond back moth leaf dip test; conditions: foliar, 120 h
Description: (§2) The active compound is dissolved at the desired concentration in a mixture of 1:1 (vol:vol) distilled water:acteon. The test solution is prepared at the day of use and in general at concentrations of […].
Leaves of Chinese cabbage were dipped in test solution and air-dried. Treated leaves were placed in petri dished lined with moist filter paper. Mortality was recorded 24, 72, and 120 hours after treatment.

[3] = test system: Mediterranean Fruitfly (Ceratitis capitata); assay: Mediterranean fruitfly microtiter plate diet test; conditions: 120 h
Description: For evaluating control of Mediterranean fruitfly (Ceratitis capitata) the test unit consisted of microtiter plates containing an insect diet and 50-80 C. capitata eggs. The compounds were formulated using a solution containing 75% v/v water and 25% v/v DMSO. Different concentrations of formulated compounds were sprayed onto the insect diet at 5 μl, using a custom built micro atomizer, at two replications.
After application, microtiter plates were incubated at about 28±1° C. and about 80±5% relative humidity for 5 days. Egg and larval mortality was then visually assessed.

[4] = test system: Orchid Thrips (Dichromothrips corbetti); assay: Orchid thrips floral-immersion test; conditions: 96 h
Description: Dichromothrips corbetti adults used for bioassay are obtained from a colony maintained continuously under laboratory conditions. For testing purposes, the test compound is diluted to a concentration of 300 ppm (wt compound: vol diluent) in a 1:1 mixture of acetone:water (vol:vol), plus 0.01% vol/vol Kinetic® surfactant.
Thrips potency of each compound is evaluated by using a floral-immersion technique. Plastic petri dishes are used as test arenas. All petals of individual, intact orchid flowers are dipped into treatment solution and allowed to dry. Treated flowers are placed into individual petri dishes along with 10-15 adult thrips. The petri dishes are then covered with lids. All test arenas are held under continuous light and a temperature of about 28° C. for duration of the assay. After 4 days, the numbers of live thrips are counted on each flower, and along inner walls of each petri dish. The level of thrips mortality is extrapolated from pre-treatment thrips numbers.

[5] = test system: Silverleaf Whitefly (Bemisia argentifolii); assay: Silverleaf whitefly cotton plant spray test; conditions: 72 h, 3 days after treatment, in comparison with untreated controls
Description: as §1
Cotton plants at the cotyledon stage (one plant per pot) were sprayed by an automated electrostatic plant sprayer equipped with an atomizing spray nozzle. The plants were dried in the sprayer fume hood and then removed from the sprayer. Each pot was placed into a plastic cup and about 10 to 12 whitefly adults (approximately 3-5 days old) were introduced. The insects were collected using an aspirator and a nontoxic Tygon® tubing connected to a barrier pipette tip. The tip, containing the collected insects, was then gently inserted into the soil containing the treated plant, allowing insects to crawl out of the tip to reach the foliage for feeding. Cups were covered with a reusable screened lid. Test plants were maintained in a growth room at about 25° C. and about 20-40% relative humidity for 3 days, avoiding direct exposure to fluorescent light (24 hour photoperiod) to prevent trapping of heat inside the cup. Mortality was assessed 3 days after treatment, compared to untreated control plants.

[6] = test system: Southern Armyworm (Spodoptera eridania); assay: Southern armyworm lima bean foliar spray test; conditions: 96 h
Description: as §1
(§3) Lima bean plants (variety Sieva) were grown 2 plants to a pot and selected for treatment at the 1st true leaf stage. Test solutions were sprayed onto the foliage by an automated electrostatic plant sprayer equipped with an atomizing spray nozzle. The plants were dried in the sprayer fume hood and then removed from the sprayer. Each pot was placed into perforated plastic bags with a zip closure. About 10 to 11 armyworm larvae were placed into the bag and the bags zipped closed. Test plants were maintained in a growth room at about 25° C. and about 20-40% relative humidity for 4 days, avoiding direct exposure to fluorescent light (24 hour photoperiod) to prevent trapping of heat inside the bags. Mortality and reduced feeding were assessed 4 days after treatment, compared to untreated control plants.

[7] = test system: Vetch Aphid (Megoura viciae); assay: Vetch aphid leaf disk microtiter plate test; conditions: foliar, 120 h
Description: For evaluating control of vetch aphid (Megoura viciae) through contact or systemic means the test unit consisted of 24-well-microtiter plates containing broad bean leaf disks.
The compounds were formulated using a solution containing 75% v/v water and 25% v/v DMSO. Different concentrations of formulated compounds were sprayed onto the leaf disks at 2.5 μl, using a custom built micro atomizer, at two replications. After application, the leaf disks were air-dried and 5-8 adult aphids placed on the leaf disks inside the microtiter plate wells. The aphids were then allowed to suck on the treated leaf disks and incubated at about 23±1° C. and about 50±5% relative humidity for 5 days. Aphid mortality and fecundity was then visually assessed.

[8] = test system: Tobacco Budworm (Heliothis virescens); assay: Tobacco budworm cotton plant foliar spray test; conditions: 96 h
Description: as §1
as §3, with “Cotton” for “Lima bean”, “plants” for “plants (variety Sieva)”, “cotyledon” for “1st true leaf”, “budworm” for “armyworm”

[9] = test system: Boll Weevil (Anthonomus grandis); assay: Boll weevil microtiter plate diet test; conditions: 120 h
Description: For evaluating control of boll weevil (Anthonomus grandis) the test unit consisted of 24-well-microtiter plates containing an insect diet and 20-30 A. grandis eggs.
The compounds were formulated using a solution containing 75% v/v water and 25% v/v DMSO. Different concentrations of formulated compounds were sprayed onto the insect diet at 20 μl, using a custom built micro atomizer, at two replications. After application, microtiter plates were incubated at about 23±1° C. and about 50±5% relative humidity for 5 days. Egg and larval mortality was then visually assessed.

[10] = test system: yellowfever mosquito larvae (Aedes aegypti); assay: Larval mosquito water treatment assay; conditions: 120 h, 5 DAT (days after treatment), first tier test, in comparison with untreated controls
Description: The assay was conducted in 6-well polystyrene plates using one plate per treatment rate. Stock solutions were prepared at 100 and 1000 ppm. Screen rates were at 1 and 10 ppm. Distilled water was added to each well, control wells were treated with acetone. Temephos (Abate technical) was used as the standard at 0.1 ppm. Ten late thirdinstar yellowfever mosquito larvae (Aedes aegypti) in water were added to each well. One drop of liver powder solution (6 g in 100 ml distilled water) was added to each well as a food source daily. Plates were maintained at 22-25° C. and 25-50% RH (relative humidity) and observed daily for dead larvae and pupae at 1, 2, 3, and 5 days after treatment. Dead larvae and all pupae were removed daily. Mortality was defined as an insect incapable of coordinated movement when agitated.

[11] = test system: Western Flower Thrips (Frankliniella occidentalis); assay: Western flower thrips glass vial / leaf disc test; conditions: 300 ppm; 2 DAT; in comparison with untreated controls
Description: Serial dilutions of each technical grade AI were made in pure acetone. 0.5 ml of the treatment solution was deposited into the bottom of a glass vial (scintillation vial). The cap was screwed back onto the vial and inverted for about five seconds. The cap was subsequently removed and the vial laid on its side and rolled constantly, on a hot dog roller, until all the acetone had flashed off and the inner surface of the vial was dry. Cotton leave discs were also dipped simultaneously into the treatment solutions and allowed to dry. After the vials were dried, the leave discs are placed into the vials to serve as a food/water source for the thrips. Each treatment was replicated 5-fold.
Western flower thrips were aspirated into the vials, approximately 5 larvae or adults/vial. Following treatment application the vials were held in a holding room under fluorescent light and constant 26° C. Thrips mortality was assessed at 2 DAT (days after treatment), counting all thrips both dead and alive.

[12] = test system: Cowpea Aphid (Aphis craccivora); assay: Cowpea aphid spray test on potted cowpea plants; conditions: population reduction assessed after 24, 72, and 120 hours, in comparison with untreated controls
Description: as §2
Potted cowpea plants colonized with approximately 100-150 aphids of various stages were sprayed after the pest population has been recorded. Population reduction was assessed after 24, 72, and 120 hours.

Compound	mortality at 300 ppm [1]	mortality at 300 ppm [2]	mortality at 2500 ppm [3]	mortality at 300 ppm [4]	mortality at 300 ppm [5]	mortality at 300 ppm [6]	mortality at 2500 ppm [7]	mortality at 2500 ppm [8]	mortality at 2500 ppm [9]	mortality at 1 ppm [10]	mortality [11]	mortality at 300 ppm [12]
CN=C(NO)c1ccc(C2=NOC(c3cc(Cl)cc(Cl)c3)(C(F)(F)F)C2)cc1C (stereo not shown) [Compound 1-1, 4-[5-(3,5-Dichloro-phenyl)-5-trifluoromethyl-4,5-dihydro-isoxazol-3-yl]-N-hydroxy-2,N′-dimethyl-benzamidine]	≥ 75%	≥ 75%	≥ 75%	≥ 75%	≥ 75%	≥ 75%	≥ 75%	≥ 75%	≥ 75%	≥ 75%	–	–
Cc1cc(C2=NOC(c3cc(Cl)cc(Cl)c3)(C(F)(F)F)C2)ccc1C(=NO)N(C)C (stereo not shown) [Compound 1-2]	–	–	–	–	–	–	–	–	–	–	at least 75%	–
Cc1cc(C2=NOC(c3cc(Cl)cc(Cl)c3)(C(F)(F)F)C2)ccc1C(=NCC(F)(F)F)NC(=O)CO (stereo not shown) [Compound 1-7, 4-[5-(3,5-Dichloro-phenyl)-5-trifluoromethyl-4,5-dihydro-isoxazol-3-yl]-N-hydroxyacetyl-2-methyl-N′-(2,2,2-trifluoro-ethyl)-benzamidine]	–	≥ 75%	≥ 75%	≥ 75%	–	≥ 75%	–	≥ 75%	≥ 75%	–	–	–
Cc1cc(C2=NOC(c3cc(Cl)cc(Cl)c3)(C(F)(F)F)C2)ccc1C(=NCc1ccccn1)NO (stereo not shown) [Compound 1-8, 4-[5-(3,5-Dichloro-phenyl)-5-trifluoromethyl-4,5-dihydro-isoxazol-3-yl]-N-hydroxy-2-methyl-N′-pyridin-2-ylmethyl-benzamidine]	≥ 75%	≥ 75%	≥ 75%	≥ 75%	–	≥ 75%	≥ 75%	≥ 75%	≥ 75%	–	–	≥ 75%
CC(=O)N(Cc1ccccn1)C(C(=O)C=NO)c1ccc(C2=NOC(c3cc(Cl)cc(Cl)c3)(C(F)(F)F)C2)cc1C (stereo not shown) [Compound 1-10, N-{{4-[5-(3,5-dichloro-phenyl)-5-trifluoromethyl-4,5-dihydro-isoxazol-3-yl]-2-methyl-phenyl}-hydroxyiminoacetyl-methyl}-N-pyridin-2-ylmethyl-acetamide]	–	≥ 75%	≥ 75%	≥ 75%	–	≥ 75%	≥ 75%	≥ 75%	≥ 75%	–	–	≥ 75%
Cc1nc(-c2ccc(C3=NOC(c4cc(Cl)cc(Cl)c4)(C(F)(F)F)C3)cc2C)no1 (stereo not shown) [Compound 9-2, 3-{4-[5-(3,5-Dichloro-phenyl)-5-trifluoromethyl-4,5-dihydro-isoxazol-3-yl]-2-methyl-phenyl}-5-methyl-[1,2,4]oxadiazole]	–	≥ 75%	≥ 75%	–	–	≥ 75%	–	≥ 75%	≥ 75%	–	–	–
Cc1nc(-c2ccc(C3=NOC(c4cc(Cl)cc(Cl)c4)(C(F)(F)F)C3)cc2CC(F)(F)F)no1 (stereo not shown) [Compound 9-4, 3-{4-[5-(3,5-Dichloro-phenyl)-5-trifluoromethyl-4,5-dihydro-isoxazol-3-yl]-2-trifluoroethyl-phenyl}-5-methyl-[1,2,4]oxadiazole]	–	–	≥ 75%	–	–	≥ 75%	–	≥ 75%	≥ 75%	–	–	–
